Laboratory results reported in ChEMBL document CHEMBL4325862, “Identification of novel quinazoline derivatives as potent antiplasmodial agents” (Eur J Med Chem, 2019).
Active and inactive are the calls of the source. The rule behind the calls is not given here.

Tests used:
[1] = Selectivity index, ratio of IC50 for mouse spleen cells to IC50 for asynchronous form of Plasmodium falciparum 3D7 infected in human erythrocytes; type: toxicity, cell-based; settings: read-out: Ratio IC50
[2] = Stability in phosphate buffered saline at pH 7.4 after 24 hrs by UV/RP-HPLC analysis; type: physicochemical; settings: buffer, pH 7.4, 24 h
Plasmodium falciparum [3] = test: Antiplasmodial activity against asynchronous form of Plasmodium falciparum W2 infected in human erythrocytes assessed as parasite growth inhibition after 48 hrs by SYBR green1 staining based flow cytometry; type: functional, organism-based; settings: W2, 48 h
Plasmodium berghei [4] = test: Antimalarial activity against Plasmodium berghei ANKA infected in BALB/c mouse assessed as reduction in parasitemia at 50 mg/kg, po administered twice daily (one dose iv and one dose po) for 4 days by Giemsa-staining based microscopic analysis; type: functional, organism-based
[5] = tested on: Plasmodium falciparum 3D7; test: Inhibition of Plasmodium falciparum 3D7 HDAC assessed as increase in histone H4 acetylation at 3 times antiplasmodial IC50 relative to control
[6] = Plasma concentration in Crl:NRMI mouse at 50 mg/kg, po administered via gavage measured after 180 mins by LC-MS/MS analysis; type: ADME, organism-based
[7] = Plasma concentration in Crl:NRMI mouse at 50 mg/kg, po administered via gavage measured after 30 mins by LC-MS/MS analysis; type: ADME, organism-based
Plasmodium falciparum [8] = test: Antiplasmodial activity against asynchronous form of Plasmodium falciparum 3D7 infected in human erythrocytes assessed as parasite growth inhibition at 10 uM after 48 hrs by SYBR green1 staining based flow cytometry relative to control; type: functional; settings: 3D7, 48 h
[9] = Plasma concentration in Crl:NRMI mouse at 50 mg/kg, iv measured after 15 mins by LC-MS/MS analysis; type: ADME, organism-based
[10] = Plasma concentration in Crl:NRMI mouse at 50 mg/kg, iv measured after 180 mins by LC-MS/MS analysis; type: ADME, organism-based
HFF = test: Cytotoxicity against HFF; type: cell-based; settings: Homo sapiens
[11] = Cytotoxicity against mouse spleen cells; type: cell-based
[12] = Plasma concentration in Crl:NRMI mouse at 50 mg/kg, po administered via gavage measured after 60 mins by LC-MS/MS analysis; type: ADME, organism-based
Plasmodium falciparum [13] = test: Antiplasmodial activity against asynchronous form of Plasmodium falciparum 3D7 infected in human erythrocytes assessed as parasite growth inhibition after 48 hrs by SYBR green1 staining based flow cytometry; type: functional, organism-based; settings: 3D7, 48 h
Plasmodium falciparum [14] = test: Antiplasmodial activity against Plasmodium falciparum Dd2 infected in human erythrocytes assessed as reduction in [3H]-hypoxanthine incorporation measured after 48 hrs by microbeta liquid scintillation counting method; type: functional, organism-based
[15] = Plasma concentration in Crl:NRMI mouse at 50 mg/kg, iv measured after 60 mins by LC-MS/MS analysis; type: ADME, organism-based
Plasmodium berghei [16] = test: Antimalarial activity against Plasmodium berghei ANKA infected in BALB/c mouse assessed as reduction in parasitemia at 50 mg/kg, po administered twice daily for 4 days by Giemsa-staining based microscopic analysis; type: functional, organism-based
[17] = molecular target: T1, DNA (cytosine-5)-methyltransferase 3A (Homo sapiens, UniProt Q9Y6K1); test: Inhibition of recombinant human DNMT3a C-terminal catalytic domain (623 to 908 residues) at 10 uM using 5'-biotinylated/3'-FAM-oligonucleotide as substrate measured after 1 hr in presence of Adomet by fluorescence assay relative to control
[18] = molecular target: T2, Histone-lysine N-methyltransferase EHMT2 (Homo sapiens, UniProt Q96KQ7); test: Inhibition of recombinant human N-terminal GST-fused G9a (786 to 1210 residues) expressed in Escherichia coli using biotinylated H3 (1 to 21 residues) as substrate measured after 1 hr in presence of 3H-Adomet by filter binding assay
T2 sequence (Q96KQ7 whole entry): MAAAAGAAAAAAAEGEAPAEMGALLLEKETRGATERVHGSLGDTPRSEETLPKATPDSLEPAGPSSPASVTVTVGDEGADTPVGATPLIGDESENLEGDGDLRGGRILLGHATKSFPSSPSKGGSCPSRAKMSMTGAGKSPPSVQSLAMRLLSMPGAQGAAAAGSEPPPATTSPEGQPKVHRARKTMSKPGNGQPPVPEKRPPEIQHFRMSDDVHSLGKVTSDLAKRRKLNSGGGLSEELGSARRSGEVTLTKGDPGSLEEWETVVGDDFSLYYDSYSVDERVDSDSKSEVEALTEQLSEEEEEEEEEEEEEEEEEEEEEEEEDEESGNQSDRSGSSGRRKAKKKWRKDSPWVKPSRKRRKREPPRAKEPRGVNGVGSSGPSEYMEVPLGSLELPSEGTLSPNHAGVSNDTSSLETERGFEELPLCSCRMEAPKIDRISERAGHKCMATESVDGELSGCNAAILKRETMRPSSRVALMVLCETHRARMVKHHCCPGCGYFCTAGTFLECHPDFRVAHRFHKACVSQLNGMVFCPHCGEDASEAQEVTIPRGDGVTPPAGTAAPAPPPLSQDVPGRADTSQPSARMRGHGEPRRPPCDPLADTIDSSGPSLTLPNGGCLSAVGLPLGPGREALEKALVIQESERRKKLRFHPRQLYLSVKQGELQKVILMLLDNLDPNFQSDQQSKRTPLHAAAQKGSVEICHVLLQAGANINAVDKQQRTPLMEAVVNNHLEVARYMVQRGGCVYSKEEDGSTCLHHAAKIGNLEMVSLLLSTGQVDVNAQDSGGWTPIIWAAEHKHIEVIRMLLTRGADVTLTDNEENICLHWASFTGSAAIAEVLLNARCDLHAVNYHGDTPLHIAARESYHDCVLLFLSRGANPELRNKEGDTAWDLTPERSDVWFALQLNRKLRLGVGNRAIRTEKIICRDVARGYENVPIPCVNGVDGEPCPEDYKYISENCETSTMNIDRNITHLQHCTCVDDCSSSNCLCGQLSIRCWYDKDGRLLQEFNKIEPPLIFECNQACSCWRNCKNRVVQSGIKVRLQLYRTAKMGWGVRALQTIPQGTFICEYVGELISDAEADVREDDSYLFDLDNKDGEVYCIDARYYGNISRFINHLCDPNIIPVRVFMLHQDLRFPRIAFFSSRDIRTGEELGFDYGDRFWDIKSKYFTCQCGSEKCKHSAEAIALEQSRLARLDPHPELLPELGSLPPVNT

[19] = molecular target: DNA (cytosine-5)-methyltransferase 1 (Homo sapiens, UniProt P26358); test: Inhibition of recombinant human DNMT1 using biotinylated DNA duplex as substrate measured after 2 hrs in presence of Adomet/[methyl-3H]Adomet by topcount method
[20] = molecular target: T1, DNA (cytosine-5)-methyltransferase 3A; test: Inhibition of recombinant human DNMT3a C-terminal catalytic domain (623 to 908 residues) using 5'-biotinylated/3'-FAM-oligonucleotide as substrate measured after 1 hr in presence of Adomet by fluorescence assay

T1 sequence (Q9Y6K1 whole entry, looked up, the tested form may be a part): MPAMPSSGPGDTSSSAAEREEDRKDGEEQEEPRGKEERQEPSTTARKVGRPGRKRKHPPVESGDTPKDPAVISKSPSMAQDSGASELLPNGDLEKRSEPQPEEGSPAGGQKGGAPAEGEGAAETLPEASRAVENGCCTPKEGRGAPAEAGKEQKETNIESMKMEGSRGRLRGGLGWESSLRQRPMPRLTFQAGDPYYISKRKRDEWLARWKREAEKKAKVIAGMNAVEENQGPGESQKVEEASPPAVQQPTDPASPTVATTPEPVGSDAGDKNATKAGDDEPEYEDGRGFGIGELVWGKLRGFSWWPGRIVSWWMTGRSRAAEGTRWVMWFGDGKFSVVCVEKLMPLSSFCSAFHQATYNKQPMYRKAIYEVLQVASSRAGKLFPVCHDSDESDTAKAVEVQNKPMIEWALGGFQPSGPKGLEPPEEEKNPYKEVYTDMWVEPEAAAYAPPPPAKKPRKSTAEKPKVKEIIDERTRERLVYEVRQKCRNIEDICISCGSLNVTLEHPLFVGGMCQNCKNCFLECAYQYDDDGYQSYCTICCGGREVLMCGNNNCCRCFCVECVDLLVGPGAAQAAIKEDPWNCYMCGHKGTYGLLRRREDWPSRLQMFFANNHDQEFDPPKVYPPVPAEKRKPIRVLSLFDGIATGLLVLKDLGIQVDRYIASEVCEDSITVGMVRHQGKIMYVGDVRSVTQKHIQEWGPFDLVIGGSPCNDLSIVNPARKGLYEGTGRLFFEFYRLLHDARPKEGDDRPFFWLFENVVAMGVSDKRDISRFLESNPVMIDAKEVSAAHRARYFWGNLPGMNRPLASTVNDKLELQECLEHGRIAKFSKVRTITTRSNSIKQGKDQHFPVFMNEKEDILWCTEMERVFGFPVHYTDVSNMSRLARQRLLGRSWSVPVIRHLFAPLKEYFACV
Chain of DNA (cytosine-5)-methyltransferase 1 (P26358 whole entry, the tested form may be a part): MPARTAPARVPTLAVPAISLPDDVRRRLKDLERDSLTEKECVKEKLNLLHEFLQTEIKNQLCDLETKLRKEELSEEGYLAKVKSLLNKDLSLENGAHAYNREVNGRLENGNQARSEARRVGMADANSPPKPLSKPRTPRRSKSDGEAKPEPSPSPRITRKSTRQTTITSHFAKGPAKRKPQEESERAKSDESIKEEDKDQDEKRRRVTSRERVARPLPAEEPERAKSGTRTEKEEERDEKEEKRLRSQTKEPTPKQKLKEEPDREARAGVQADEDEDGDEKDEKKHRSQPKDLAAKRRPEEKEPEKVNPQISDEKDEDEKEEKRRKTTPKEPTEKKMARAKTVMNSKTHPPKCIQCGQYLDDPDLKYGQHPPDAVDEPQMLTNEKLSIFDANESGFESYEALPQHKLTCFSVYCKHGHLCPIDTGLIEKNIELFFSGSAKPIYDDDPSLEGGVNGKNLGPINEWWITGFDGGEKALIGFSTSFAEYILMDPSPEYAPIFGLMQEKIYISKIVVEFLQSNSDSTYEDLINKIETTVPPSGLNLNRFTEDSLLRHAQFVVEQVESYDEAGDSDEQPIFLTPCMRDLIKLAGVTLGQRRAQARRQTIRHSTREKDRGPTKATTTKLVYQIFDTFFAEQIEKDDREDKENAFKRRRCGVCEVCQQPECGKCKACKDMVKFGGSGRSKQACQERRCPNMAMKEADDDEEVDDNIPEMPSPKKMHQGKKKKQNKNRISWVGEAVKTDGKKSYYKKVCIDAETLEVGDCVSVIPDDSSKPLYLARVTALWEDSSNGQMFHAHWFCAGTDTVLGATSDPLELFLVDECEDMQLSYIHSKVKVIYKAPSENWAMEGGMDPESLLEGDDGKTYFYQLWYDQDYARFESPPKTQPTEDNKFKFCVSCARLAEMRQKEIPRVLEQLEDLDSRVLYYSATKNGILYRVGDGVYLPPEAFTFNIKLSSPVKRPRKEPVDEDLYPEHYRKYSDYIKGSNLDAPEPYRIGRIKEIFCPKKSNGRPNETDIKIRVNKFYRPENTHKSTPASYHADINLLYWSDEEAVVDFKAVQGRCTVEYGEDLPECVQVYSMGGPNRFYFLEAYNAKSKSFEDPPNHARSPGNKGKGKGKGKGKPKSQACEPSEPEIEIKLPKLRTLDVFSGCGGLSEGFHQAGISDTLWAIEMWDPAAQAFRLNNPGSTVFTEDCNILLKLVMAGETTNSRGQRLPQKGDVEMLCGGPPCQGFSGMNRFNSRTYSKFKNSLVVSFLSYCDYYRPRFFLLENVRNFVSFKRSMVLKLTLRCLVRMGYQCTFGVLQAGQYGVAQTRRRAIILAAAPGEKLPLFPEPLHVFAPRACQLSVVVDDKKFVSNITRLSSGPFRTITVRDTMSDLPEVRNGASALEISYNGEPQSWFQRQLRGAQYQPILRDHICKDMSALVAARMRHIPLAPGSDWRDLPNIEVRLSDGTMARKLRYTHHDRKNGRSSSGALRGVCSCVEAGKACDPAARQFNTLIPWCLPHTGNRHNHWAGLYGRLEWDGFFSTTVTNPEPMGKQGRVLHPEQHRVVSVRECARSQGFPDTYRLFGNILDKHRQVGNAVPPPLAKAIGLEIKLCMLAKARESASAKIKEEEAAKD

SMILES | selectivity ratio [1] | IC50 (Plasmodium falciparum [3]) | inhibition at 10 µM (Plasmodium falciparum [8]) | IC50 (HFF) | IC50 [11] | IC50 (Plasmodium falciparum [13]) | IC50 (Plasmodium falciparum [14]) | EC50 [18] | EC50 [19] | EC50 [20] | further results
O=C(CCCCSc1nc(-c2ccc(-c3ccccc3)cc2)cc(=O)[nH]1)NO | 186 | 6.6 nM | 96.1 to 97% | 3300 nM | 785 nM | 4 to 6 nM | 4 nM | – | – | – | Stability [2]: Stable; Activity (Plasmodium berghei [4]): inactive; fold change (FC) [5]: < 2; concentration at 3 h [6]: 70 to 300 nM; concentration at 0.5 h [7]: 670 to 2430 nM; concentration at 0.25 h [9]: 10700 to 15200 nM; concentration at 3 h [10]: 43 to 44 nM; concentration at 1 h [12]: 480 to 900 nM; concentration at 1 h [15]: 1670 to 2160 nM; Activity (Plasmodium berghei [16]): inactive
c1ccc(COc2ccc3c(NC4CCN(Cc5ccccc5)CC4)nc(N4CCN(c5ccccc5)CC4)nc3c2)cc1 | – | – | 100% | – | – | 66.9 nM | – | – | – | – | inhibition [17]: 43%
COc1ccc(CCN2CCC(Nc3nc(NCc4ccc(F)cc4)nc4ccccc34)CC2)cc1 | – | – | 100% | – | – | 33.6 nM | – | 50900 nM | > 100000 nM | 4800 nM | –
COc1ccc(CCN2CCC(Nc3nc(NCc4ccc(F)cc4)nc4cc(OC)c(OC)cc34)CC2)cc1 | 44 | 25.8 nM | 100% | 3220 nM | 800 nM | 18 nM | 6.1 nM | 31800 nM | > 100000 nM | 5200 nM | –
